These results are taken from patent US20260027125A1, “AN ANTIBACTERIAL PARENTERAL FORMULATION AND METHODS THEREOF” (BUGWORKS RESEARCH INDIA PVT. LTD., priority 2022, published 2026).

Data set [1] in a line: Solubility study without acetic acid. The settings on record: aqueous with cosolvent or surfactant or cyclodextrin, combination of ascorbic acid and lactic acid, read-out: solubilized at a concentration of. Format: physicochemical.
The nature of data set [2]: pKa (selection of counterions). Format: physicochemical. The conditions noted are these: weakly basic nature of the compound.
Data set [3] is described as follows: Solubility of free amine in solvents. It is filed as physicochemical.
The conditions of data set [4]: counter ion selected for salt screening; cited from earlier work.

Usually pKa stands for the negative logarithm of the acid dissociation constant. A lower pKa goes with a group that gives up its proton readily. Take `Cn1c(=O)ccc2ccc(F)c(CCNC[C@H]3CN(c4cnc5c(n4)NC(=O)CO5)C(=O)O3)c21` [compound of Formula (I), (S)-6-(5-(((2-(7-fluoro-1-methyl-2-oxo-1,2-dihydroquinolin-8-yl)ethyl)amino)methyl)-2-oxooxazolidin-3-yl)-2H-pyrazino[2,3-b][1,4]oxazin-3(4H)-one]: the solubility in data set [1] stood at 20 mg/mL. This compound also returned a pKa in data set [2] of roughly 6.81. In addition, in data set [3], the solubility in solvents result was “soluble only in dichloromethane and methanol (1:1) mixture”.
With `CCS(=O)(=O)O` [ethane sulfonic acid], the “pKa (first value)” value in data set [4] is recorded as 1.68.
